From the NIST ThermoML archive (doi:10.1016/j.fluid.2013.12.002)
Numbers after ± are expanded uncertainties. Each block holds one compound with its values, some of them ahead of it.

Conditions: Liquid, Ebulliometric method (Recirculating still)

SMILES: Cc1ccccc1 [toluene]
vapor or sublimation pressure (383.81 K): 101.33 ± 1.4 kPa

SMILES: O=Cc1ccccc1 [benzaldehyde]
vapor or sublimation pressure (377.63 K): 10 ± 0.15 kPa
vapor or sublimation pressure (396.65 K): 20 ± 0.31 kPa
vapor or sublimation pressure (408.67 K): 30 ± 0.45 kPa

vapor or sublimation pressure (353.26 K): 101.33 ± 1.4 kPa
SMILES: c1ccccc1 [benzene]

SMILES: O=CC=Cc1ccccc1 [(E)-3-phenyl-2-propanal]
vapor or sublimation pressure (442.84 K): 10 ± 0.15 kPa
vapor or sublimation pressure (463.15 K): 20 ± 0.33 kPa
vapor or sublimation pressure (475.83 K): 30 ± 0.49 kPa
